# Where two headings read alike, the source gives them in different places. Marks after values point to notes of the source that are not given here.
# Columns and labels:
# Treponema hyodysenteriae [1] = assay: Minimum inhibitory concentration by microdilution (Table VII); format: cell-based; settings: Brachyspira hyodysenteriae, read-out: MIC
# [2] = tested on: Pasteurella haemolytica 30660; assay: Pasteurella disk test (primary in vitro disk diffusion test); format: cell-based; settings: Mannheimia haemolytica; disks soaked in 2.5 mg/ml solution; strain 30660
# [3] = tested on: Pasteurella multocida 31081B; assay: as above; settings: Pasteurella multocida, 31081B, read-out: ZONE SIZE
# Treponema hyodysenteriae [4] = assay: T. hyodysenteriae disk test (primary in vitro disk diffusion test); settings: Brachyspira hyodysenteriae
# [5] = tested on: Mycoplasma gallisepticum "R"; assay: Minimum inhibitory concentration assay for Mycoplasma gallisepticum (microdilution, Table VII); settings: Mycoplasmoides gallisepticum
# [6] = tested on: In Vitro Rumen Fermentation; assay: Propionate enhancement activity during in vitro rumen fermentation; format: cell-based, steer; settings: for A:P: acetate/propionate ratio
# Experimental: The drugs are dissolved or suspended (sonified if necessary) in a 0.1% Tween 20-ethanol-water vehicle and 25-50 ul is added to the incubation. The reaction is terminated with 6N HCl and centrifuged at 20,000 x g. Alliquots of the superinatant are analyzed for volatile fatty acid (VFA) content by gas-liquid chromatography.
# [7] = Weight gains and feed efficiency in broiler chicks treated with E19020 alpha (Table IX A); format: in vivo; settings: 200 PPM
# Experimental: Five male and five female one day old Peterson X Arbor Acres chicks are allotted to starter battery cages by weight. Cages are randomized to treatment groups with seven replicates per treatment. […] The positive standard is penicillin at 200 ppm. Diets are prepared weekly.
# [8] = Weight gain and feed efficiency of broiler chicks (Example 6, Table IX); format: in vivo, Peterson X Arbor Acres chicks; settings: 200 PPM in diet
# [9] = ATCC27164, strain B78 (ATCC 27164)
# [10] = ATCC31212, strain B204 (ATCC 31212)
molecule,measurement,setting,value
"COC(=O)N/N=C/c1c[n+]([O-])c2ccccc2[n+]1[O-] [CARBADOX, reference compound]",MIC,Treponema hyodysenteriae [1]; [9],0.5 µg/mL
same,MIC,Treponema hyodysenteriae [1]; [10],0.25 µg/mL
"CN(C)C1C(=O)C(C(N)=O)=C(O)C2(O)C(=O)C3=C(O)c4c(O)ccc(Cl)c4C(C)(O)C3CC12 (stereo not shown) [CTC, reference compound]",zone of inhibition at 2500 µg/mL,[2],11 mm
same,zone of inhibition at 2500 µg/mL,[3],25 mm
same,zone of inhibition at 2500 µg/mL,"Treponema hyodysenteriae [4]; ATCC27164, read-out: ZONE SIZE",45 mm
same,zone of inhibition at 2500 µg/mL,"Treponema hyodysenteriae [4]; ATCC31212, read-out: ZONE SIZE",37 mm
same,MIC,[5],0.5 µg/mL
"C=C[C@]1(C)C[C@@H](OC(=O)CSCCN(CC)CC)[C@]2(C)[C@H](C)CC[C@]3(CCC(=O)[C@H]32)[C@@H](C)[C@@H]1O [TIAMULIN, reference compound]",MIC,Treponema hyodysenteriae [1]; [9],0.015 µg/mL
same,MIC,Treponema hyodysenteriae [1]; [10],0.015 µg/mL
same,zone of inhibition at 2500 µg/mL,"Treponema hyodysenteriae [4]; ATCC27164, read-out: ZONE SIZE",67 mm
same,zone of inhibition at 2500 µg/mL,"Treponema hyodysenteriae [4]; ATCC31212, read-out: ZONE SIZE",70 mm
"CC[C@H]1OC(=O)C[C@@H](O)[C@H](C)[C@@H](O[C@@H]2O[C@H](C)[C@@H](O[C@H]3C[C@@](C)(O)[C@@H](O)[C@H](C)O3)[C@H](N(C)C)[C@H]2O)[C@@H](CC=O)C[C@@H](C)C(=O)/C=C/C(C)=C/[C@@H]1CO[C@@H]1O[C@H](C)[C@@H](O)[C@@H](OC)[C@H]1OC [TYLOSIN, reference compound]",MIC,[5],0.03 µg/mL
AVOPARCIN [reference compound],A:P,"[6]; Table X, 1.0 PPM, control 2.65",2.38
same,TOTAL VFA,"[6]; Table X, 1.0 PPM, control 159.4",159.4 mM
same,A:P,"[6]; Table X, 2.000 PPM, control 2.65",2.23
same,TOTAL VFA,"[6]; Table X, 2.000 PPM, control 159.4",160.2 mM
same,A:P,"[6]; Table X, 4.0 PPM, control 2.65",2.12
same,TOTAL VFA,"[6]; Table X, 4.0 PPM, control 159.4",158.9 mM
same,A:P,"[6]; Table X, 8.0 PPM, control 2.65",2.08
same,TOTAL VFA,"[6]; Table X, 8.0 PPM, control 159.4",158.3 mM
same,A:P,"[6]; Table XI, 1.0 PPM, control 2.19",2.02
same,TOTAL VFA,"[6]; Table XI, 1.0 PPM, control 125.3",126.9 mM
same,A:P,"[6]; Table XI, 2.0 PPM, control 2.19",1.98
same,TOTAL VFA,"[6]; Table XI, 2.0 PPM, control 125.3",125.3 mM
same,A:P,"[6]; Table XI, 4.0 PPM, control 2.19",1.90
same,TOTAL VFA,"[6]; Table XI, 4.0 PPM, control 125.3",121.3 mM
same,A:P,"[6]; Table XI, 8.0 PPM, control 2.19",1.88
same,TOTAL VFA,"[6]; Table XI, 8.0 PPM, control 125.3",119.4 mM
Penicillin [reference compound],FEED/GAIN % I[…] CONTROLS 0-3 WEEKS,[7],3.5%
same,FEED/GAIN % I[…] CONTROLS 0-7 WEEKS,[7],6.0%
same,WEIGHT GAIN % I[…] CONTROLS 0-3 WEEKS,[7],4.9%
same,WEIGHT GAIN % I[…] CONTROLS 0-7 WEEKS,[7],3.4%
same,FEED/GAIN 0-3 WEEKS,[7]; control 1.43,1.38**
same,FEED/GAIN 0-7 WEEKS,[7]; control 1.99,1.87**
same,WEIGHT GAIN IN GRAMS 0-3 WEEKS,[7]; control 608,638* GRAMS
same,WEIGHT GAIN IN GRAMS 0-7 WEEKS,[7]; control 2145,2217 GRAMS
same,Wg Gains And Feed Efficiency % Improvement Over Controls COMBINED,[8],3.5%
same,Wg Gains And Feed Efficiency % Improvement Over Controls FEMALES,[8],4.2%
same,Wg Gains And Feed Efficiency % Improvement Over Controls MALES,[8],2.4%
same,Wg Gains And Feed Efficiency % Improvement Over Controls FEED/GAIN,[8]; control 1.41,1.35**

# — patent publication EP0252380B1, “Antibiotic LL-E19020 alpha and beta” (AMERICAN CYANAMID COMPANY, priority 1986, dated 1988)
